Laboratory results reported in patent US5708063A, “Photochromic compound” (Tokuyama Corporation, priority 1993, dated 1998).
Blank lines part the entries; values can stand above or below the molecule they belong to.

Key:
Assay type in all cases: physicochemical
[1] = Fatigue life of fulgide/fulgimide and chromene compound in polymerized methacrylate plate (Example 15); details: for T1/2 of fulgide or fulgimide compound: 0.05 part
Protocol: (§1) […] The mixed solution was injected into a mold which was made of a glass plate and a gasket formed of an ethylene-vinyl acetate copolymer, and was heated to a temperature of 35° to 90° C. in an air oven over a period of 20 hours for polymerization. After the polymerization was over, the polymer was withdrawn from the glass plate of the mold.
(§2) The resulting polymerized plate was irradiated with sunlight for 10 minutes. On this occasion, a color tone of said plate was visually observed. In this polymerized plate, the fulgide or fulgimide compound and the chromene compound were measured for fatigue life in the same manner as in Example 9. Further, a color tone of the polymerized plate was visually observed in T1/2 (hrs.) of the fulgide or fulgimide compound.

[2] = Fatigue life of fulgide/fulgimide and chromene compound in polymerized plate with ultraviolet light stabilizer (Example 16)
[3] = Photochromic PMMA cast film: initial coloration density, maximum absorption wavelength and fatigue life in xenon fadeometer (Example 9); details: PMMA cast film 0.1 mm; for λmax / Initial color density: xenon light; for Initial color density / T1/2: no stabilizer; for T1/2: time for color density to fall to half of initial value, xenon fadeometer;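 for Initial color density: initial color density is an absorbance value so the % unit is wrong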
Description: The thickness of the cast film was adjusted to 0.1 mm.
(§3) T1/2 is defined as the time required for the color density to decrease to half of its initial value when the film is exposed to the fadeometer.

[4] = Visual color tone of polymerized plate under sunlight (Example 15); details: 0.05 part
Protocol: as §1, §2

[5] = Fatigue life of photochromic PMMA cast film with ultraviolet stabilizer, xenon fadeometer (Examples 11-14); details: PMMA film, UV stabilizer Cyasorb UV1084, 0.2 part
Protocol: One hundred parts by weight of benzene, 10 parts by weight of poly(methyl methacrylate), 0.2 part […] The solution was cast on a slide glass (11.2×3.7 cm) to form a cast film having a thickness of 0.1 mm.
The fatigue life of photochromic film was measured as in Example 9 by a xenon long-life fadeometer (FAL-25AX-HC made by Suga Testing Instrument Co., Ltd.).
Example 11 was repeated except that the fulgimide compound obtained in Example 2 was used instead of fulgimide compound used in Example 11.
Example 11 was repeated except that the fulgimide or fulgide compounds shown in Table 28 were used instead of the fulgimide compounds in Example 11, and Cyasorb UV1084 was used as the ultraviolet stabilizer.

[6] = Durability of poly(allyl diglycol carbonate) lens impregnated with the compound in silicone oil, as in Example 9 (Example 10); design: Initial color density: unit not given here; details: silicone oil impregnation
Protocol: as §3
The solution was impregnated in the surface of a lens composed of poly(allyl diglycol carbonate) at 200° C. for 1 hour. The concentration of the solution was adjusted to 1.0×10^-4 mole/g.

[7] = with chromenes 1/2 (0.015/0.015 part)

Molecule: 7'-methoxyspiro(bicyclo[3.3.1]nonane-9,2'-(2H)benzo(f)-chromene) [Chromene compound 2]
- T1/2 of chromene compound ([1]; 0.03 part, with fulgide/fulgimide 2 (0.05 part)): 210 h
- T1/2 of chromene compound ([1]; 0.03 part, with fulgide/fulgimide 21 (0.05 part)): 170 h
- T1/2 of chromene compound ([1]; 0.03 part, with fulgide/fulgimide 36 (0.05 part)): 190 h
- T1/2 of chromene compound ([1]; 0.03 part, with fulgide/fulgimide 45 (0.05 part)): 175 h
- T1/2 of chromene compound ([1]; 0.03 part, with fulgide/fulgimide 54 (0.05 part)): 165 h
- T1/2 of chromene compound ([1]; 0.04 part chromene 2, with fulgide/fulgimide 2/48 (0.025/0.025 part)): 190 h
- T1/2 of chromene compound ([2]; 0.04 part, fulgimide 2 (0.05), Tiniuvin 765 (0.1)): 340 h
- T1/2 of chromene compound ([2]; 0.04 part, fulgimide 2 (0.05), Tinuvin 765 (0.2)): 350 h
- T1/2 of chromene compound ([2]; 0.04 part, fulgimide 2 (0.05), Tinuvin 765 (0.5)): 400 h
- T1/2 of chromene compound ([2]; 0.04 part, fulgimide 2 (0.05), Tinuvin 765 (1.0)): 480 h
- T1/2 of chromene compound ([2]; 0.04 part, fulgimide 2 (0.05), Tinuvin 765 (2.0)): 500 h
- T1/2 of chromene compound ([2]; 0.04 part, fulgimide 2 (0.05), Tinuvin 765 (10.0)): 520 h
- T1/2 of chromene compound ([2]; 0.04 part, fulgimide 2 (0.05), UV Chek AM105 (0.7)): 440 h
- T1/2 of chromene compound ([2]; 0.05 part, fulgimide 2 (0.05), LA-63 (0.5)): 480 h
- T1/2 of chromene compound ([2]; 0.05 part, fulgimide 48 (0.05), Cyasorb UV 1084 (0.6)): 430 h

- T1/2 of chromene compound ([1]; 0.03 part, with fulgide/fulgimide 8 (0.05 part)): 170 h
- T1/2 of chromene compound ([1]; 0.03 part, with fulgide/fulgimide 30 (0.05 part)): 170 h
- T1/2 of chromene compound ([1]; 0.04 part chromene 1, with fulgide/fulgimide 2/48 (0.025/0.025 part)): 190 h
- T1/2 of chromene compound ([1]; 0.04 part, with fulgide/fulgimide 48 (0.05 part)): 148 h
- T1/2 of chromene compound ([2]; 0.03 part, fulgimide 2 (0.05), Irgastab 2002 (0.5)): 480 h
- T1/2 of chromene compound ([2]; 0.04 part, fulgimide 48 (0.05), Spinuvex A-36 (0.6)): 430 h
Molecule: C1=CC2(CC3CCC2C3)Oc2c1ccc1ccccc21 (centres unmarked) [Chromene compound 1, Spiro(norbornane-2,2'-(2H)benzo(h)-chromene)]

- T1/2 of chromene compound ([1]; 0.08 part, with fulgide/fulgimide 10 (0.05 part)): 150 h
- T1/2 of chromene compound ([1]; 0.08 part, with fulgide/fulgimide 44 (0.05 part)): 160 h
- T1/2 of chromene compound ([2]; 0.01 part, fulgimide 2 (0.05), Cyasorb 944 (0.5)): 400 h
- T1/2 of chromene compound ([2]; 0.1 part, fulgimide 48 (0.05), Tinuvin 765 (0.7)): 420 h
Molecule: CC1=CC2(Oc3ccc4ccccc4c31)C1CCCC2CCC1 (centres unmarked) [Chromene compound 3, 4'-methylspiro[bicyclo[3.3.1]nonane-9,2'-[2H]benzo[f]chromene]]

Molecule: CCC(C(=O)C[N+](=O)[O-])N1C(=O)C2=C(C3CC3)c3cc(OC)cc(OC)c3C3(C4CC5CC(C4)CC3C5)C2C1=O (centres unmarked) [(45)]
- T1/2 of fulgide or fulgimide compound ([1]; with chromene 2 (0.03 part)): 160 h
- λmax [3]: 579 nm
- Initial color density [3]: 0.54%
- T1/2 [3]: 65 h
- Color tone in T0 ([4]; with chromene 2 (0.03 part)): gray
- Color tone in T1/2 ([4]; with chromene 2 (0.03 part)): light gray
- T1/2 [5]: 265 h

Molecule: CC1CC1C1=C2C(=O)N(CCCCCc3cccc4ccccc34)C(=O)C2C2(c3sc4c(c31)CCCC4)C1CC3CC(C1)CC2C3 (centres unmarked) [(48)]
- T1/2 of fulgide or fulgimide compound ([1]; with chromene 1 (0.04 part)): 154 h
- T1/2 of fulgide or fulgimide compound [1, 7]: 154 h
- λmax [3]: 588 nm
- Initial color density [3]: 0.75%
- T1/2 [3]: 62 h
- Color tone in T0 ([4]; with chromene 1 (0.04 part)): gray
- Color tone in T1/2 ([4]; with chromene 1 (0.04 part)): gray
- Color tone in T0 [4, 7]: gray
- Color tone in T1/2 [4, 7]: gray
- T1/2 of fulgide or fulgimide compound ([2]; 0.05 part, chromene 1 (0.04), Spinuvex A-36 (0.6)): 430 h
- T1/2 of fulgide or fulgimide compound ([2]; 0.05 part, chromene 2 (0.05), Cyasorb UV 1084 (0.6)): 420 h
- T1/2 of fulgide or fulgimide compound ([2]; 0.05 part, chromene 3 (0.1), Tinuvin 765 (0.7)): 450 h
- T1/2 of fulgide or fulgimide compound ([2]; 0.05 part, chromene 4 (0.1), UV Check AM101 (0.4)): 440 h
- T1/2 of fulgide or fulgimide compound ([2]; 0.05 part, chromene 5 (0.05), Tinuvin 622 (0.7)): 450 h
- λmax [6]: 590 nm
- Initial color density ([6]; 1.0×10^-4 mole/g): 0.67
- T1/2 ([6]; xenon fadeometer): 65 h

- T1/2 of chromene compound ([1]; 0.04 part, with fulgide/fulgimide 24 (0.05 part)): 152 h
- T1/2 of chromene compound ([1]; 0.08 part, with fulgide/fulgimide 12 (0.05 part)): 180 h
- T1/2 of chromene compound ([2]; 0.01 part, fulgimide 2 (0.05), LS-2626 (0.4)): 480 h
- T1/2 of chromene compound ([2]; 0.1 part, fulgimide 48 (0.05), UV Check AM101 (0.4)): 430 h
Molecule: CC1=Cc2c(ccc3ccccc23)OC12CC1CCC2C1 (centres unmarked) [Chromene compound 4, 3'-methylspiro[norbornane-2,2'-[2H]benzo-[f]chromene]]

Molecule: CCCCCCCCOc1cccc2c3c(ccc12)C=CC(C)(C)O3 [Chromene compound 5, 2,2-dimethyl-7-octoxy[2H]benzo[h]chromene]
- T1/2 of chromene compound ([1]; 0.03 part, with fulgide/fulgimide 17 (0.05 part)): 120 h
- T1/2 of chromene compound ([1]; 0.04 part, with fulgide/fulgimide 15 (0.05 part)): 192 h
- T1/2 of chromene compound ([1]; 0.07 part, with fulgide/fulgimide 46 (0.05 part)): 155 h
- T1/2 of chromene compound ([2]; 0.05 part, fulgimide 2 (0.05), Mark LA-87 (0.5)): 450 h
- T1/2 of chromene compound ([2]; 0.05 part, fulgimide 48 (0.05), Tinuvin 622 (0.7)): 430 h

Molecule: CCCCC1CC1C1=C2C(=O)N(C(C)(C)C#N)C(=O)C2C2(c3c(OC)cc(OC)cc31)C1CCC2(CCCC)CC1 (centres unmarked) [(17)]
- T1/2 of fulgide or fulgimide compound ([1]; with chromene 5 (0.03 part)): 146 h
- λmax [3]: 568 nm
- Initial color density [3]: 0.58%
- T1/2 [3]: 58 h
- Color tone in T0 ([4]; with chromene 5 (0.03 part)): gray
- Color tone in T1/2 ([4]; with chromene 5 (0.03 part)): gray
- T1/2 [5]: 230 h
